Measured values: the NIST ThermoML archive (doi:10.1016/j.fluid.2010.03.001)

Test: xn = mol fraction of the nth substance listed
Settings: 101 kPa, Liquid; for mass density: Vibrating tube method; for viscosity: Concentric cylinders viscometry

C=C(C)[C@H]1CC=C(C)CC1 [(R)-1-methyl-4-(1-methylethenyl)cyclohexene] + CCCCCO
Settings | mass density, 333.15 K [kg/m3] | mass density, 343.15 K [kg/m3] | mass density, 353.15 K [kg/m3] | mass density, 363.15 K [kg/m3] | mass density, 373.15 K [kg/m3] | viscosity, 343.15 K [mPa·s] | viscosity, 353.15 K [mPa·s] | viscosity, 363.15 K [mPa·s] | viscosity, 373.15 K [mPa·s]
x2 = 0 | 809.9 | 801.9 | 793.6 | 785.4 | 777.1 | 0.5 | 0.452 | 0.413 | 0.382
x2 = 0.092 | 807.3 | 799.2 | 790.8 | 782.5 | 774.3 | 0.511 | 0.462 | 0.421 | 0.385
x2 = 0.1644 | 805.5 | 797.2 | 788.9 | 780.4 | 771.9 | 0.52 | 0.468 | 0.424 | 0.386
x2 = 0.2748 | 803 | 794.6 | 786.2 | 777.7 | 769 | 0.546 | 0.487 | 0.438 | 0.395
x2 = 0.3592 | 801 | 792.6 | 784.2 | 775.6 | 766.9 | 0.567 | 0.502 | 0.448 | 0.402
x2 = 0.4565 | 798.8 | 790.4 | 781.9 | 773.2 | 764.4 | 0.608 | 0.534 | 0.473 | 0.421
x2 = 0.5542 | 796.5 | 788.2 | 779.5 | 770.9 | 762 | 0.657 | 0.571 | 0.502 | 0.443
x2 = 0.6068 | 795.2 | 787 | 778.4 | 769.6 | 760.7 | 0.688 | 0.594 | 0.519 | 0.456
x2 = 0.647 | 794.2 | 786 | 777.4 | 768.6 | 759.7 | 0.713 | 0.615 | 0.535 | 0.469
x2 = 0.7365 | 792.2 | 783.7 | 775.2 | 766.5 | 757.7 | 0.786 | 0.669 | 0.576 | 0.499
x2 = 0.8234 | 789.8 | 781.5 | 773.1 | 764.4 | 755.7 | 0.878 | 0.737 | 0.627 | 0.538
x2 = 0.9105 | 787.3 | 779.1 | 770.6 | 762 | 753.1 | 0.996 | 0.827 | 0.691 | 0.584
